Data on 50 substances can be found in patent US9597407B2, “Targeted antimicrobial moieties” (C3 Jian, Inc., priority 2009, dated 2017).

“Also recorded” adds a separate entry of the source. Square brackets hold non-standard residues; d marks the D form. Ends that are not written are not given here. dOrn = NCCC[C@@H](N)C(=O)O

The test system of the first assay is bacteria. The assay is described as follows: Binding of targeting peptides to microorganisms (Table 3). Conditions: data not shown.
For DAANEA-GGG [BL-1], the bacterial binding result is recorded as “no bacterial binding”.

The assay is the same for the next values; noted with them: microorganism bound by the targeting peptide; binding in aqueous buffers chosen by peptide solubility, preferably 1x PBS.
As to AIEGVIKKGACFKLLRHEMF [PF-167], the “Target(s)” value was “S. epidermidis and E. coli and C. albicans and MRSA and C. jeikeium and C. jejuni”.

For “HIKETR (Peptide with targeting and/or antimicrobial activity) [PF-222]”, the “Target(s)” value is listed as “S. epidermidis”.

Take “MKKLVAALAVIVILTGCVYDPVNYDKIHDQEFQDHLRQNG [PF-252]”: the “Target(s)” value was “S. mutans”.

As to MLTSRKKRLKKIVEEQNKKDESI [PF-336], the “Target(s)” value is given as “S. mutans; also recorded: E. coli”.

Regarding “PF-097 (QPTQGEQGTRPRRPTPMRGLLI; Peptide with targeting and/or antimicrobial activity)”, the “Target(s)” value is given as “C. jeikeium”.

For “PF-101 (DPVPERQEQACACHRTAKPGK; Peptide with targeting and/or antimicrobial activity)”, the “Target(s)” value is “S. mutans”.

Regarding “PF-104 (ERTAVNDLWI; Peptide with targeting and/or antimicrobial activity)”, the “Target(s)” value was “MRSA and C. jeikeium”.

In the case of “PF-130 (LQRSDEESMPRRHEKYS; Peptide with targeting and/or antimicrobial activity)”, the “Target(s)” value is listed as “E. faecalis; also recorded: C. jeikeium; also recorded: C. jejuni”.

Turning to “PF-131 (RRAAARTKGNRR; Peptide with targeting and/or antimicrobial activity)”, the “Target(s)” value was “S. epidermidis and E. coli and MRSA and C. jeikeium”.

Regarding “PF-132 (RPGDGAAEQGRSR; Peptide with targeting and/or antimicrobial activity)”, the “Target(s)” value is on record as “S. epidermidis; also recorded: C. jeikeium”.

With “PF-134 (GKAMKRQDCSAL; Peptide with targeting and/or antimicrobial activity)”, the “Target(s)” value is listed as “S. epidermidis; also recorded: C. jeikeium”.

For the substance “PF-138 (AVHHSLLFR; Peptide with targeting and/or antimicrobial activity)”, the “Target(s)” value was “S. epidermidis and M. luteus and P. mirabilis and E. coli and C. albicans and MRSA and C. jeikeium and C. jejuni”.

As for “PF-141 (VVRRFQGM; Peptide with targeting and/or antimicrobial activity)”, the “Target(s)” value is “S. epidermidis and M. luteus and C. albicans and MRSA and C. jeikeium”.

Take “PF-142 (GIDRGCQAAR; Peptide with targeting and/or antimicrobial activity)”: the “Target(s)” value was “S. mutans”.

“PF-146 (GCGKRRIITKSASRDTR; Peptide with targeting and/or antimicrobial activity)”: the “Target(s)” value was “S. epidermidis and M. luteus and P. aeruginosa and C. albicans and MRSA and C. jeikeium”.

In the case of “PF-147 (RRPRRRRSGHGQSASAA; Peptide with targeting and/or antimicrobial activity)”, the “Target(s)” value is “S. epidermidis and M. luteus and MRSA”.

As for “PF-150 (EIQAKGTG; Peptide with targeting and/or antimicrobial activity)”, the “Target(s)” value is “S. epidermidis and MRSA”.

For the substance “PF-151 (EEYPARVPLSGEDVTEARRH; Peptide with targeting and/or antimicrobial activity)”, the “Target(s)” value is “S. epidermidis and MRSA and E. faecalis and C. jeikeium”.

“PF-152 (VGYFIWKDSHSRKG; Peptide with targeting and/or antimicrobial activity)”: the “Target(s)” value was “S. epidermidis and C. albicans and MRSA and E. faecalis and C. jeikeium”.

Turning to “PF-154 (GIKKSKHPSTDDYVVKTTIDSL; Peptide with targeting and/or antimicrobial activity)”, the “Target(s)” value is listed as “S. mutans”.

With “PF-155 (GRYGDDSKERQGRAQ; Peptide with targeting and/or antimicrobial activity)”, the “Target(s)” value was “C. jeikeium”.

As to “PF-158 (VRLESRPADLPE; Peptide with targeting and/or antimicrobial activity)”, the “Target(s)” value is “S. epidermidis”.

With “PF-159 (TMAFVEKAQLRVPVGDDLPV; Peptide with targeting and/or antimicrobial activity)”, the “Target(s)” value is given as “S. epidermidis”.

Staying with this assay, now noted: microorganism the targeting peptide binds; binding in aqueous buffers that varied with peptide solubility, preferably 1x PBS.
“1T-286 (LGFFNNKADLVKADTERDNRMSSLKIKDL; Peptide with targeting and/or antimicrobial activity) [Peptide 1T-286]”: the “Target(s)” value is “S. sanguinis”.

For the substance “1T-287 (KGYPLPFQYRLNNH; Peptide with targeting and/or antimicrobial activity) [Peptide 1T-287]”, the “Target(s)” value is reported as “P. gingivalis; also recorded: T. denticola; also recorded: S. gordonii; also recorded: S. mitis; also recorded: S. mutans; also recorded: S. oralis; also recorded: S. salivarious; also recorded: S. sanguinis”.

With “1T-288 (RWVGGEPSADIYLSAKDTKT; Peptide with targeting and/or antimicrobial activity) [Peptide 1T-288]”, the “Target(s)” value was “F. nucleatum; also recorded: S. gordonii; also recorded: S. salivarious; also recorded: S. sanguinis”.

For the substance “1T-289 (EPSADIYLSAKDTKT; Peptide with targeting and/or antimicrobial activity) [Peptide 1T-289]”, the “Target(s)” value is “F. nucleatum; also recorded: P. gingivalis; also recorded: S. gordonii; also recorded: S. mitis; also recorded: S. mutans; also recorded: S. oralis; also recorded: S. sanguinis”.

On to “1T-291 (DMKIIKLYIKILSFLFIKYCNKKLNSVKLKA; Peptide with targeting and/or antimicrobial activity) [Peptide 1T-291]”, for which the “Target(s)” value is listed as “A. naeslundii; also recorded: F. nucleatum; also recorded: P. gingivalis; also recorded: T. denticola; also recorded: S. mitis; also recorded: S. mutans; also recorded: S. oralis”.

Consider “1T-294 (YDKIADGVFKIGKRGVL; Peptide with targeting and/or antimicrobial activity) [Peptide 1T-294]”, for which the “Target(s)” value is recorded as “T. denticola”.

Consider “1T-295 (KYKLKKIIL; Peptide with targeting and/or antimicrobial activity) [Peptide 1T-295]”, for which the “Target(s)” value is “S. mitis; also recorded: S. salivarious; also recorded: S. sanguinis”.

For “1T-297 (RSLRLNNALTKLPKLWYNRIKEAFYAYNDYDK; Peptide with targeting and/or antimicrobial activity) [Peptide 1T-297]”, the “Target(s)” value is recorded as “A. naeslundii; also recorded: F. nucleatum; also recorded: T. denticola; also recorded: S. mitis; also recorded: S. mutans; also recorded: S. oralis”.

Consider “1T-301 (SKLPRVLDASLKL; Peptide with targeting and/or antimicrobial activity) [Peptide 1T-301]”, for which the “Target(s)” value was “F. nucleatum; also recorded: S. gordonii; also recorded: S. sanguinis”.

For the substance “1T-304 (STAGEASRRTASEASRRTAAKLRG; Peptide with targeting and/or antimicrobial activity) [Peptide 1T-304]”, the “Target(s)” value was “P. gingivalis”.

As for “CHA0 (D[dOrn]KTAA[dOrn]K; bridge (positions not given here); not fully specified (bridges))”, the “Target(s)” value was “P. fluorescens”.

For the substance “PF-014 (HPTDNKHN; Peptide with targeting and/or antimicrobial activity)”, the “Target(s)” value is “E. coli; also recorded: C. jeikeium”.

Regarding “PF-016 (RKQYDDLSFNFLY; Peptide with targeting and/or antimicrobial activity)”, the “Target(s)” value was “S. epidermidis; also recorded: E. faecalis; also recorded: C. jeikeium”.

Turning to “PF-018 (YYKTYFKEV; Peptide with targeting and/or antimicrobial activity)”, the “Target(s)” value was “E. coli; also recorded: C. jeikeium”.

With “PF-038 (MAYKDEGKETKFAVKGYKD; Peptide with targeting and/or antimicrobial activity)”, the “Target(s)” value is reported as “M. luteus”.

In the case of “PF-039 (MLEEKNKSL; Peptide with targeting and/or antimicrobial activity)”, the “Target(s)” value is “P. mirabilis; also recorded: C. jeikeium”.

For “PF-044 (KLKKYIHKPD; Peptide with targeting and/or antimicrobial activity)”, the “Target(s)” value is “S. epidermidis and M. luteus and MRSA and C. jeikeium”.

With “PF-047 (NQEPSLQQDKEQKDNKG; Peptide with targeting and/or antimicrobial activity)”, the “Target(s)” value is given as “S. mutans”.

As for “PF-050 (SYYLKRREEKGK; Peptide with targeting and/or antimicrobial activity)”, the “Target(s)” value is listed as “S. epidermidis; also recorded: M. luteus; also recorded: E. coli; also recorded: C. jeikeium”.

With “PF-054 (VSISRFIGGGHVFNGNNKRNL; Peptide with targeting and/or antimicrobial activity)”, the “Target(s)” value is on record as “S. epidermidis; also recorded: E. coli”.

For “PF-055 (GHVFNGNNKRNL; Peptide with targeting and/or antimicrobial activity)”, the “Target(s)” value is “S. mutans”.

Regarding “PF-060 (HSSHL; Peptide with targeting and/or antimicrobial activity)”, the “Target(s)” value is recorded as “E. coli; also recorded: C. albicans; also recorded: C. jeikeium”.

Turning to “PF-062 (MKKKRINNDILGRMIYSSSIDKRNLYNLKYYE; Peptide with targeting and/or antimicrobial activity)”, the “Target(s)” value was “S. epidermidis and M. luteus and E. coli and P. aeruginosa and MRSA and S. pneumoniae and E. faecalis and C. jeikeium”.

Still in this assay, the particulars now being: peptide binding in aqueous buffers that varied depending on peptide solubility; preferably 1x PBS.
As to ASKQASKQASKQASKQASKQASRSLKNHLL [PF-523], the “Target(s) (microorganisms bound by the targeting peptide)” value is “S. epidermidis; also recorded: M. luteus; also recorded: C. albicans; also recorded: S. pneumoniae; also recorded: C. jeikeium; also recorded: C. jejuni”.

Turning to LVLRICTDLFTFIKWTIKQRKS [PF-497], the “Target(s) (microorganisms bound by the targeting peptide)” value is reported as “S. mutans; also recorded: B. subtilis; also recorded: E. coli”.

Regarding PEIIKIVSGLL [PF-758], the “Target(s) (microorganism bound by the targeting peptide)” value was “S. epidermidis and M. luteus and E. coli and MRSA and S. pneumoniae and E. faecalis and C. jeikeium”.
